Literature values in patent US10137135B2, “Formulations and methods for providing progestin-only contraception while minimizing adverse side effects associated therewith” (Allergan Sales, LLC, priority 2005, dated 2018).

Test system: ovulation
Conditions: subdermal implants of NEA

C#C[C@]1(OC(C)=O)CC[C@H]2[C@@H]3CCC4=CC(=O)CC[C@@H]4[C@H]3CC[C@@]21C [NEA, norethindrone acetate]
NE levels thought to be required to consistently inhibit ovulation: 600 pg/mL
